In brackets after ≈: the same amount, converted by molar mass. Where two headings read alike, the source gives them in different places.
Experiments:
T47D = test: Inhibition of cancer cell growth as measured by cell number, T47D; type: cell-based; settings: Homo sapiens
CX1 = test: Inhibition of cancer cell growth as measured by cell number, CX1; type: cell-based; settings: Homo sapiens, read-out: IC50 CX1
HCT15 = test: Inhibition of cancer cell growth as measured by cell number, HCT15; type: cell-based; settings: Homo sapiens, read-out: IC50 HCT15
LNCAP = test: Inhibition of cancer cell growth as measured by cell number, LNCAP; type: cell-based; settings: Homo sapiens
SKBR3 = test: Inhibition of cancer cell growth as measured by cell number, SKBR3; type: cell-based, human; settings: Homo sapiens;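 further: SK-BR-3 cells were selected as a line overexpressing HER2/neu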
Source text: (§1) The cell lines were chosen since they overexpressed epidermal growth factor receptor (EGFR) (i.e. A431) or HER2/neu (SKBR3), or had little to no expression of the these receptors (SW620, LOX, MCF7).

A431 [1] = test: Inhibition of cell growth by incorporation of [3H]-thymidine, A431; type: cell-based, human; settings: Homo sapiens
A549 = test: Inhibition of cancer cell growth as measured by cell number, A549; type: cell-based; settings: Homo sapiens, read-out: IC50 A549
LOX = test: Inhibition of cancer cell growth as measured by cell number, LOX; type: cell-based, human; settings: Homo sapiens, LOX, 48 h;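 further: LOX cells served as a line with low or absent EGFR and HER2/neu expression, in contrast to receptor-overexpressing lines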
Source text: as §1

HTB161 = test: Inhibition of cancer cell growth as measured by cell number, HTB161; type: cell-based; settings: Homo sapiens, read-out: IC50 HTB161
HL60 = test: Inhibition of cancer cell growth as measured by cell number, HL60; type: cell-based; settings: Homo sapiens, read-out: IC50 HL60
DU145 = test: Inhibition of cancer cell growth as measured by cell number, DU145; type: cell-based; settings: Homo sapiens, read-out: IC50 DU145
CACO2 = test: Inhibition of cancer cell growth as measured by cell number, CACO2; type: cell-based; settings: Homo sapiens, read-out: IC50 CACO2
NEC = test: Inhibition of cancer cell growth as measured by cell number, NEC; type: cell-based; settings: Homo sapiens, read-out: IC50 NEC
CCL228 = test: Inhibition of cancer cell growth as measured by cell number, CCL228; type: cell-based; settings: Homo sapiens, read-out: IC50 CCL228
[2] = biological target: recombinant human MEK 1 (MAPKK) and recombinant human ERK2 (MAPK); test: Mitogen Activated Protein Kinase (MAPK) assay, two component coupled MEK 1 / ERK2; type: biochemical; settings: separate entries for the same compound = evaluated more than one time;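 further: MEK 1-activated ERK2 phosphorylates MBP or Myc peptide with 33P-ATP, filter capture and scintillation counting, inhibitor preincubated with ERK2 30 min at 0 °C, inhibition relative to uninhibited control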
LS174T = test: Inhibition of cancer cell growth as measured by cell number, LS174T; type: cell-based; settings: Homo sapiens
B7474 = test: Inhibition of cancer cell growth as measured by cell number, B7474; type: cell-based; settings: Homo sapiens, read-out: IC50 B7474
A27805 = test: Inhibition of cancer cell growth as measured by cell number, A27805; type: cell-based; settings: Homo sapiens, read-out: IC50 A27805
PC3 = test: Inhibition of cancer cell growth as measured by cell number, PC3; type: cell-based; settings: Homo sapiens, read-out: IC50 PC3
CCRF-CFM = test: Inhibition of cancer cell growth as measured by cell number, CCRF-CFM; type: cell-based; settings: Homo sapiens, read-out: IC50 CCRF-CFM
A2780DDP = test: Inhibition of cancer cell growth as measured by cell number, A2780DDP; type: cell-based; settings: Homo sapiens, read-out: IC50 A2780DDP
SW620 = test: Inhibition of cancer cell growth as measured by cell number, SW620; type: cell-based, human; settings: Homo sapiens, SW-620, 48 h;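 further: SW620 was included as a cell line with little or no EGFR or HER2/neu expression, in contrast to receptor-overexpressing lines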
Source text: as §1

COLO205 = test: Inhibition of cancer cell growth as measured by cell number, COLO205; type: cell-based; settings: Homo sapiens, read-out: IC50 COLO205
SW948 = test: Inhibition of cancer cell growth as measured by cell number, SW948; type: cell-based; settings: Homo sapiens, read-out: IC50 SW948
A431 [3] = test: Inhibition of cancer cell growth as measured by cell number, A431; type: cell-based, human; settings: Homo sapiens, A-431, 48 h;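 further: human A431 line, picked because it overexpresses epidermal growth factor receptor (EGFR)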
Source text: as §1

MCF7 = test: Inhibition of cancer cell growth as measured by cell number, MCF7; type: cell-based, human; settings: Homo sapiens, MCF7, 48 h;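 further: MCF7 was included as a line with little or no EGFR or HER2/neu expression, in contrast to the receptor-overexpressing lines of the panel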
Source text: as §1

LX1 = test: Inhibition of cancer cell growth as measured by cell number, LX1; type: cell-based; settings: Homo sapiens, read-out: IC50 LX1
MIP = test: Inhibition of cancer cell growth as measured by cell number, MIP; type: cell-based; settings: Homo sapiens; cell number, Sulforhodamine B, 48 hours exposure; Table 4; read-out: IC50 MIP
[4] = biological target: epidermal growth factor receptor kinase (Homo sapiens, UniProt P00533); test: biochemical
[5] = cell number, Sulforhodamine B, 48 hours exposure, Table 4
[6] = cell number, Sulforhodamine B, 48 hours exposure, Table 6
[7] = SK-BR-3, 48 h, read-out: IC50 SKBR3, cell number, Sulforhodamine B, 48 hours exposure, Table 7
[8] = read-out: IC50 LOX, cell number, Sulforhodamine B, 48 hours exposure, Table 6
[9] = read-out: IC50 SW620, cell number, Sulforhodamine B, 48 hours exposure, Table 4
[10] = read-out: IC50 A431, cell number, Sulforhodamine B, 48 hours exposure, Table 6
[11] = read-out: IC50 MCF7, cell number, Sulforhodamine B, 48 hours exposure, Table 5

epidermal growth factor receptor kinase, sequence (P00533 25-1210): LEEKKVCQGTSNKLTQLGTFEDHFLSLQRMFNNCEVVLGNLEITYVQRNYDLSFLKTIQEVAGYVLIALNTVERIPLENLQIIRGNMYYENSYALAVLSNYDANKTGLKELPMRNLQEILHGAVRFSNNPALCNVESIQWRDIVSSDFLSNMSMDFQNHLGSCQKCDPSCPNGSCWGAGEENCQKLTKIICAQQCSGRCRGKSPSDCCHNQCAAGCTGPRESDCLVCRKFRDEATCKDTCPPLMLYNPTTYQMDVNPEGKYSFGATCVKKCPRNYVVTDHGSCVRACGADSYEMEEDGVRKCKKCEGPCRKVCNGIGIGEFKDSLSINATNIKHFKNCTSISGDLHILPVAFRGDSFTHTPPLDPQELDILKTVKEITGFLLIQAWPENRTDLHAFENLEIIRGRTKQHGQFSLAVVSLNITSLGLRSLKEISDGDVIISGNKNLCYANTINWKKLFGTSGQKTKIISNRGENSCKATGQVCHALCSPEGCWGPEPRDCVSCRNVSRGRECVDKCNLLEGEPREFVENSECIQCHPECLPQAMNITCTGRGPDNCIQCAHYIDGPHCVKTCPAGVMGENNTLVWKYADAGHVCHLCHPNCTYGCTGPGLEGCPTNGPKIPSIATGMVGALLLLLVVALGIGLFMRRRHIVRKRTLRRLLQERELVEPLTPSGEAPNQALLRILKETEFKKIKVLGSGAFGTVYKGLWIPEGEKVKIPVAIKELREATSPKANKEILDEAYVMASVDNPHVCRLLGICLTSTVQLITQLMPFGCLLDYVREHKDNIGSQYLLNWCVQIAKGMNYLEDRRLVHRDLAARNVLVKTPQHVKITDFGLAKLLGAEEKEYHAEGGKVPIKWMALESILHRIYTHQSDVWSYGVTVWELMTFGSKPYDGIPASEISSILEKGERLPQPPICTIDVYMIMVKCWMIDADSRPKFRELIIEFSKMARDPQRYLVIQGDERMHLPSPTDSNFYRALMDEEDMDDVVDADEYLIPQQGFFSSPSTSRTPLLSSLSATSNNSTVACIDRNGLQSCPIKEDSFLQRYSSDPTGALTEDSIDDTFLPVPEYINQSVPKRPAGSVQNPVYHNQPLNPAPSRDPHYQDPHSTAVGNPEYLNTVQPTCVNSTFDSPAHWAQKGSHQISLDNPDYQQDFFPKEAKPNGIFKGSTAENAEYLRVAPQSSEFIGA

COc1cc2ncc(C#N)c(NC3CCCCC3)c2cc1OC [Example 38, 4-(Cyclohexyamino)-6,7-dimethoxy-3-quinolinecarbonitrile]
IC50 (T47D; cell number, Sulforhodamine B, 48 hours exposure, Table 6, read-out: IC50 T47D): 5.98 µg/mL (≈ 19.2 µM)
IC50 (CX1; CX-1, cell number, Sulforhodamine B, 48 hours exposure, Table 4): 5.62 µg/mL (≈ 18.1 µM)
IC50 (HCT15; HCT-15, cell number, Sulforhodamine B, 48 hours exposure, Table 5): 5.16 µg/mL (≈ 16.6 µM)
IC50 (LNCAP; cell number, Sulforhodamine B, 48 hours exposure, Table 7, read-out: IC50 LNCAP): 4.58 µg/mL (≈ 14.7 µM)
IC50 (SKBR3; SK-BR-3, cell number, Sulforhodamine B, 48 hours exposure, Table 7, read-out: IC50 SKBR3): 7.14 µg/mL (≈ 22.9 µM)
IC50 (A431 [1]; A-431, [3H]-thymidine incorporation, A431, read-out: IC50 A431): 35000 nM
IC50 (A549; A549, cell number, Sulforhodamine B, 48 hours exposure, Table 6): 7.33 µg/mL (≈ 23.5 µM)
IC50 (LOX; cell number, Sulforhodamine B, 48 hours exposure, Table 6, read-out: IC50 LOX): 8.12 µg/mL (≈ 26.1 µM)
IC50 (HTB161; [5]): 3.19 µg/mL (≈ 10.3 µM)
IC50 (HL60; HL-60, cell number, Sulforhodamine B, 48 hours exposure, Table 7): 4.27 µg/mL (≈ 13.7 µM)
IC50 (DU145; DU-145, cell number, Sulforhodamine B, 48 hours exposure, Table 7): 5.15 µg/mL (≈ 16.5 µM)
IC50 (CACO2; Caco-2, cell number, Sulforhodamine B, 48 hours exposure, Table 5): 5.62 µg/mL (≈ 18 µM)
IC50 (NEC; [6]): 6.53 µg/mL (≈ 21 µM)
IC50 (CCL228; cell number, Sulforhodamine B, 48 hours exposure, Table 5): 8.49 µg/mL (≈ 27.3 µM)
IC50 [2]: 45000 nM
IC50 (LS174T; cell number, Sulforhodamine B, 48 hours exposure, Table 5, read-out: IC50 LS174T): 5.37 µg/mL (≈ 17.2 µM)
IC50 (B7474; [6]): 17 µg/mL (≈ 54.5 µM)
IC50 (A27805; [5]): 4.58 µg/mL (≈ 14.7 µM)
IC50 (PC3; PC-3, cell number, Sulforhodamine B, 48 hours exposure, Table 7): 9.33 µg/mL (≈ 30 µM)
IC50 (CCRF-CFM; cell number, Sulforhodamine B, 48 hours exposure, Table 7): 4.39 µg/mL (≈ 14.1 µM)
IC50 (A2780DDP; [5]): 6.56 µg/mL (≈ 21.1 µM)
IC50 (SW620; cell number, Sulforhodamine B, 48 hours exposure, Table 4, read-out: IC50 SW620): 31.7 µg/mL (≈ 102 µM)
IC50 (COLO205; COLO 205, cell number, Sulforhodamine B, 48 hours exposure, Table 4): 6.43 µg/mL (≈ 20.6 µM)
IC50 (SW948; SW948, cell number, Sulforhodamine B, 48 hours exposure, Table 5): 10.4 µg/mL (≈ 33.5 µM)
IC50 (A431 [3]; cell number, Sulforhodamine B, 48 hours exposure, Table 6, read-out: IC50 A431): 4.73 µg/mL (≈ 15.2 µM)
IC50 (MCF7; cell number, Sulforhodamine B, 48 hours exposure, Table 5, read-out: IC50 MCF7): 6 µg/mL (≈ 19.3 µM)
IC50 (LX1; LX-1, cell number, Sulforhodamine B, 48 hours exposure, Table 6): 7.52 µg/mL (≈ 24.2 µM)
IC50 (MIP): 7.75 µg/mL (≈ 24.9 µM)

COc1cc2ncc(C#N)c(Nc3cccc(Cl)c3)c2cc1OC [Example 41, 4-[(3-Chlorophenyl)amino]-6,7-dimethoxy-3-quinolinecarbonitrile]
IC50 (T47D; 48 h, read-out: IC50 T47D): 8.5 µg/mL (≈ 25 µM)
IC50 (CX1; CX-1, 48 h): 7.25 µg/mL (≈ 21.3 µM)
IC50 (HCT15; HCT-15, 48 h): 4.21 µg/mL (≈ 12.4 µM)
IC50 (LNCAP; 48 h, read-out: IC50 LNCAP): 3.53 µg/mL (≈ 10.4 µM)
IC50 (SKBR3; [7]): 20.6 µg/mL (≈ 60.8 µM)
IC50 (SKBR3; SK-BR-3, 48 h, read-out: IC50 SKBR3, cell number, Sulforhodamine B, 48 hours exposure, Table 8): 0.48 µg/mL (≈ 1.41 µM)
IC50 (A431 [1]; A-431, read-out: IC50 A431): 1500 nM
IC50 (A549; A549, 48 h): 25 µg/mL (≈ 73.5 µM)
IC50 (LOX; [8]): 0.961 µg/mL (≈ 2.83 µM)
IC50 (LOX; read-out: IC50 LOX, cell number, Sulforhodamine B, 48 hours exposure, Table 8): 1.33 µg/mL (≈ 3.91 µM)
IC50 (HTB161; 48 h): 7.87 µg/mL (≈ 23.2 µM)
IC50 (HL60; HL-60, 48 h): 3.23 µg/mL (≈ 9.52 µM)
IC50 (DU145; DU-145, 48 h): 0.913 µg/mL (≈ 2.69 µM)
IC50 (CACO2; Caco-2, 48 h): 2.11 µg/mL (≈ 6.21 µM)
IC50 (NEC; 48 h): 8.46 µg/mL (≈ 24.9 µM)
IC50 (CCL228; 48 h): 18.5 µg/mL (≈ 54.4 µM)
IC50 [2]: 1400 nM
IC50 (LS174T; 48 h, read-out: IC50 LS174T): 2.92 µg/mL (≈ 8.61 µM)
IC50 (B7474; 48 h): 6.26 µg/mL (≈ 18.4 µM)
IC50 [4]: 200 nM
IC50 (A27805; 48 h): 7.73 µg/mL (≈ 22.7 µM)
IC50 (PC3; PC-3, 48 h): 17.5 µg/mL (≈ 51.5 µM)
IC50 (CCRF-CFM; 48 h): 8.29 µg/mL (≈ 24.4 µM)
IC50 (A2780DDP; 48 h): 6.25 µg/mL (≈ 18.4 µM)
IC50 (SW620; [9]): 14.7 µg/mL (≈ 43.1 µM)
IC50 (SW620; read-out: IC50 SW620, cell number, Sulforhodamine B, 48 hours exposure, Table 8): 2.23 µg/mL (≈ 6.56 µM)
IC50 (COLO205; COLO 205, 48 h): 6.13 µg/mL (≈ 18 µM)
IC50 (SW948; SW948, 48 h): 14.1 µg/mL (≈ 41.6 µM)
IC50 (A431 [3]; [10]): 0.813 µg/mL (≈ 2.39 µM)
IC50 (A431 [3]; read-out: IC50 A431, cell number, Sulforhodamine B, 48 hours exposure, Table 8): 0.24 µg/mL (≈ 0.706 µM)
IC50 (MCF7; [11]): 24.8 µg/mL (≈ 73.1 µM)
IC50 (MCF7; read-out: IC50 MCF7, cell number, Sulforhodamine B, 48 hours exposure, Table 8): 6.86 µg/mL (≈ 20.2 µM)
IC50 (LX1; LX-1, 48 h): 48.7 µg/mL (≈ 143 µM)
IC50 (MIP): 4.09 µg/mL (≈ 12 µM)

COc1cc2ncc(C#N)c(Nc3cccc(C#N)c3)c2cc1OC [Example 45, 4-[(3-Cyanophenyl)amino]-6,7-dimethoxy-3-quinolinecarbonitrile]
IC50 (T47D; 48 h, read-out: IC50 T47D): 30 µg/mL (≈ 90.9 µM)
IC50 (CX1; CX-1, 48 h): 89.7 µg/mL (≈ 271 µM)
IC50 (HCT15; HCT-15, 48 h): 79.7 µg/mL (≈ 241 µM)
IC50 (LNCAP; 48 h, read-out: IC50 LNCAP): 57.8 µg/mL (≈ 175 µM)
IC50 (SKBR3; [7]): 60.5 µg/mL (≈ 183 µM)
IC50 (A431 [1]; A-431, read-out: IC50 A431): 150 nM
IC50 (A549; A549, 48 h): 100 µg/mL (≈ 303 µM)
IC50 (LOX; [8]): 9.06 µg/mL (≈ 27.4 µM)
IC50 (HTB161; 48 h): 4.21 µg/mL (≈ 12.8 µM)
IC50 (HL60; HL-60, 48 h): > 100 µg/mL
IC50 (DU145; DU-145, 48 h): 8.94 µg/mL (≈ 27.1 µM)
IC50 (CACO2; Caco-2, 48 h): 0.911 µg/mL (≈ 2.76 µM)
IC50 (NEC; 48 h): 72.1 µg/mL (≈ 218 µM)
IC50 (CCL228; 48 h): > 100 µg/mL
IC50 [2]: > 100000 nM
IC50 (LS174T; 48 h, read-out: IC50 LS174T): 87.1 µg/mL (≈ 264 µM)
IC50 (B7474; 48 h): 86.8 µg/mL (≈ 263 µM)
IC50 [4]: 1670 nM
IC50 (A27805; 48 h): 8.66 µg/mL (≈ 26.2 µM)
IC50 (PC3; PC-3, 48 h): 88.9 µg/mL (≈ 269 µM)
IC50 (CCRF-CFM; 48 h): > 100 µg/mL
IC50 (A2780DDP; 48 h): 39.3 µg/mL (≈ 119 µM)
IC50 (SW620; [9]): > 100 µg/mL
IC50 (COLO205; COLO 205, 48 h): > 100 µg/mL
IC50 (SW948; SW948, 48 h): > 100 µg/mL
IC50 (A431 [3]; [10]): 2.61 µg/mL (≈ 7.9 µM)
IC50 (MCF7; [11]): 57.8 µg/mL (≈ 175 µM)
IC50 (LX1; LX-1, 48 h): 100 µg/mL (≈ 303 µM)
IC50 (MIP): > 100 µg/mL
